Experimental data as given in US11903992B2, “Composition comprising lidocaine, l-carnosine and dexpanthenol” (Cellix Bio Private Limited, priority 2021, dated 2024).

Tests used:
[1] = pH of the formulation (pH meter); format: physicochemical; conditions: during development of the formulation; tends to increase degradation of lidocaine
[2] = Stability observations during development of the formulation; format: physicochemical; conditions: during development of the oral rinse formulation
Excerpt: In an embodiment, the composition is formulated as an oral rinse formulation. It could also be noted during development of the formulation that L-Carnosine tends to increase the pH of the composition to about 8.5, which tend to increase the degradation of lidocaine. […] During the experimentation, it could be noted that presence of a buffer (e.g. a citrate buffer) and an anti-oxidant (e.g. sodium metabisulfite) in the composition, while maintaining pH of the resultant composition/formulation around 6.5±1 (i.e. ranging from about 5.5 to about 7.5), preferably at 6.5±0.5 and more preferably, at 6.5±0.2 affords dramatic improvement in the shelf life of the composition/formulation.

## NCCC(=O)N[C@@H](Cc1cnc[nH]1)C(=O)O [L-Carnosine]
[1]
  pH of the composition as increased by L-Carnosine: about 8.5
[2]
  stability observation of the ingredient: sensitive to oxygen tend to degrade

## CC(C)(CO)[C@@H](O)C(=O)NCCCO [Dexpanthenol]
[2]
  stability observation of the ingredient: requires neutral pH for stability
